Reference: patent publication US9486440B2, “Uses of indole-ketones or indolidones as neuro-protective drugs” (UNIVERSITY OF MACAU, priority 2011, dated 2016)
Where two headings read alike, the source gives them in different places.

Assays:
[1] = tested on: DA neurons in the zebrafish brain; test: MPTP zebrafish, whole-mount immunostaining against tyrosine hydroxylase; type: in vivo; details: 200 μM MPTP, 2 days from 1 dpf; SU4312 3-30 μM, PTK787/ZK222584 0.3-3 μM, SU5416 0.1-1 μM, VRI 0.03-0.3 μM
Method: Wild-type zebrafish (AB strain) and Tg (fli-1:EGFP) transgenic zebrafish were maintained as described in the Zebrafish Handbook (Westerfield, 1993). Zebrafish embryos were generated by natural pair-wise mating (3-12 months old) and raised at 28.5° C. in embryo medium (13.7 mM NaCl, 540 μM KCl, pH 7.4, 25 μM Na2HPO4, 44 μM KH2PO4, 300 μM CaCl2, 100 μM MgSO4, 420 μM NaHCO3, pH 7.4). […] An equal concentration of DMSO in embryo medium was used as vehicle control in each experiment.

intracellular NO = test: Intracellular NO in CGNs after MPP+ (DAF-FM diacetate); type: cell-based, rat; details: 35 μM MPP+
Method: (§1) Intracellular NO was monitored with 4-Amino-5-methylamino-2′,7′-difluorofluorescein (DAF-FM) diacetate, a pH-insensitive fluorescent dye that emits increased fluorescence after reaction with an active intermediate of NO formed during the spontaneous oxidation of NO to NO2 (Sheng et al., 2005). DAF-FM solution was added to the culture medium (final concentration: 5 μM). After 30 min in a CO2 incubator, cultures were washed twice with PBS and incubated for an additional 30 min to allow complete de-esterification of the intracellular diacetate for stronger fluorescence. The DAF-FM fluorescence in CGNs was quantified by a multi-detection microplate reader using excitation and emission wavelengths of 495 nm and 515 nm, respectively. The measured fluorescence values were expressed as a percentage of the fluorescence in the control cells.
as §1, with “(4-amino-5-methylamino-2′,7′-difluorofluorescein) DAF-FM” for “4-Amino-5-methylamino-2′,7′-difluorofluorescein (DAF-FM)”, “After incubation for” for “After”, “another” for “an additional”, “strong” for “stronger”

[2] = tested on: retinal photoreceptors or ganglion cells; details: 3 mg of SU4312 every 5 days for 12 weeks; cited from earlier work
SH-SY5Y cells = test: MPP+-induced neurotoxicity in SH-SY5Y cells, MTT assay; type: cell-based, human; details: for cell proliferative or cytotoxic effects of the drug alone, SH-SY5Y cells: alone for 26 hours, 10 μM SU4312, 3 μM PTK787/ZK222584, 0.3 μM sunitinib; for toxicity to SH-SY5Y cells at higher concentration: higher concentration (sunitinib 1 μM), data not shown; for MPP+-induced neuronal death in SH-SY5Y cells (MTT): pre-treatment 2 hours, then 1 mM MPP+ for 24 hours
Method: The human neuroblastoma SH-SY5Y cells were obtained from ATCC. The cells were maintained in supplemented Dulbecco's modified eagle medium (DMEM), 10% fetal bovine serum, 100 U/ml penicillin, and 100 μg/ml streptomycin in a 37° C., 5% CO2 incubator. PC12 pheochromocytoma cells were also obtained from ATCC. The cells were cultured in medium that consisted of DMEM, 10% heat-inactivated horse serum, 5% fetal bovine serum, 100 U/ml penicillin, and 100 μg/ml streptomycin in a 37° C., 5% CO2 incubator. All experiments were carried out 48 hours after the cells were seeded. […] The assay was performed according to the specifications of the manufacturer (MTT kit I; Roche Applied Science). […] After the incubation, 100 μl of the solvating solution (0.01 N HCl in 10% SDS solution) was added to each well for 16-20 hours. Absorbance of the samples was measured at a wavelength of 570 nm with 655 nm as a reference wavelength. Unless otherwise indicated, the extent of MTT conversion in cells exposed to MPP^+ is expressed as a percentage of the control.

VEGFR-2 = details: cited from earlier work
PDGFR = details: cited from earlier work
CGNs = test: Low potassium-induced cell death in CGNs, MTT assay; type: cell-based; details: 5 mM KCl BME medium, 24 hours; sunitinib 0.1-2 μM
Method: Cell viability was measured by MTT assay at 24 hours after low potassium challenge. […] After 24 hours of low potassium challenge, CGNs were assayed with an FDA/PI double staining. […] After 24 hours of low potassium challenge, CGNs were assayed with Hoechst staining. The number of apoptotic nuclei with condensed chromatin were counted from representative Hoechst staining photomicrographs and represented as a percentage of the total number of nuclei counted. […] Intracellular NO level was measured using DAF-FM diacetate as a probe at 4 hour after low potassium challenge. Data, expressed as percentage of control (CGNs were cultured in high potassium medium), were the mean±SEM of three separate experiments; *p<0.05 and **p<0.01 versus low potassium group in (A) and (D) or versus control in (C); ^##p<0.01 versus low potassium group in (C) (Turkey's test).
It was previously reported that low potassium could induce typical apoptosis in cerebellar granule neurons (CGNs) (Fu et al., 2008). […] Cell viability was measured with an MTT assay 24 hours after the low potassium treatment.

nNOS protein expression = test: Western blot of nNOS protein in CGNs after MPP+; type: cell-based, rat; details: 20 μM, 35 μM MPP+
Method: Briefly, neurons were harvested in a cell lysis buffer. Protein was separated on SDS-polyacrylamide gel and transferred onto polyvinyldifluoride membranes. After membrane blocking, proteins were detected using primary antibodies. After incubation at 4° C. overnight, signals were obtained after binding to chemiluminescent secondary antibodies. Blots were developed using an ECL plus kit (Amersham Bioscience, Aylesbury, UK) and exposed to Kodak autoradiographic films. All data were from three independent experiments and were expressed as the ratio to optical density (OD) values of the corresponding controls for statistical analyses.

Row | Structure (SMILES) | MPTP-induced loss of DA neurons / decrease of TH+ region area [1] | MPP+-induced elevation of intracellular NO level (intracellular NO; pre-treatment 2 hours, 24 hours, SU4312 3-30 μM, 7-NI 3-10 μM) | damage to retinal photoreceptors or ganglion cells [2] | cell proliferative or cytotoxic effects of the drug alone, SH-SY5Y cells (SH-SY5Y cells) | toxicity to SH-SY5Y cells at higher concentration (SH-SY5Y cells) | MPP+-induced neuronal death in SH-SY5Y cells (MTT) (SH-SY5Y cells) | IC50 (VEGFR-2) | IC50 (VEGFR-2; listed as PTK787) | MPP+-induced neuronal death in SH-SY5Y cells (MTT) (SH-SY5Y cells; listed as PTK787) | IC50 (PDGFR) | low potassium-induced cell death (MTT) (CGNs) | MPP+-stimulated NO production (intracellular NO; measured at 8 hour) | MPP+-increased expression of nNOS protein (nNOS protein expression)
1 | CN(C)c1ccc(C=C2C(=O)Nc3ccccc32)cc1 [SU4312, 3-[4-(dimethylamino)benzylidenyl]indolin-2-one] | significantly alleviated the loss of DA neurons | attenuated MPP^+-triggered elevation of intracellular NO level | did not damage retinal photoreceptors or ganglion cells | did not show cell proliferative or cytotoxic effects | at higher concentration conferred toxicity | prevented MPP^+-induced dopaminergic neuronal death at 3-10 μM in SH-SY5Y cells | – | – | – | – | – | – | –
2 | Clc1ccc(Nc2nnc(Cc3ccncc3)c3ccccc23)cc1 [PTK787/ZK222584] | – | – | – | did not show cell proliferative or cytotoxic effects | […] | at 3 μM failed to block neuronal loss induced by MPP^+ | […] | […] | at 1 and 3 μM failed to block neuronal loss induced by MPP^+ | […] | at 3 and 10 μM both failed to block neuronal loss in vitro | – | –
3 | Cc1cc(C)c(/C=C2\C(=O)Nc3ccccc32)[nH]1 [SU5416, (3Z)-3-[(3,5-dimethyl-1H-pyrrol-2-yl)methylidene]-1,3-dihydro-2H-indol-2-one] | significantly prevented the decrease in the area of TH^+ region induced by MPTP | – | – | – | – | – | – | – | – | – | – | antagonized the stimulatory effect of MPP^+ on the NO production with an efficacy similar to 7-nitroindazole (15 μM) | reversed the increased expression of nNOS by MPP^+
